{
  "source": "patent US5190922A",
  "about": "(priority 1991, dated 1993)",
  "note": "Non-standard residues stand in square brackets, D forms with d. Residues, ends and D or L forms follow the SMILES beside them. ξ: configuration not given here. *: point of attachment. X10 = N=C(N)NCCCCN(C[C@H](CC1CCCCC1)N*)C(=O)Cc1ccccc1; Butanoyl(3S-Ph) = C[C@@H](CC(=O)*)c1ccccc1; X6 = N#CC(Cc1ccccc1)(Cc1ccccc1)C(=O)*; NMeF = CN[C@@H](Cc1ccccc1)C(=O)O; PhLac = O=C(O)[C@@H](O)Cc1ccccc1; X11 = O=[N+]([O-])c1cccc(CN*)c1; Cha = N[C@@H](CC1CCCCC1)C(=O)O; dCha = N[C@H](CC1CCCCC1)C(=O)O; Phe(ol) = N[C@H](CO)Cc1ccccc1; X9 = CC[C@H](C(=O)*)c1ccccc1; X2 = N#CC(Cc1ccccc1)C(=O)*; ξCha = NC(CC1CCCCC1)C(=O)O; X8 = c1ccc(C2(CN*)CC2)cc1; X7 = O=C(C(CO)c1ccccc1)*; NH(CH2)5NH2 = NCCCCCN*; NHBn = c1ccc(CN*)cc1; Bz = O=C(c1ccccc1)*; OBn = c1ccc(CO*)cc1; X3 = N=C(N)NCCCN*",
  "data": [
    {"biological_target": "T1, C5a Receptor (Homo sapiens, UniProt P21730)", "T1 construct": "2.5-25 μg/mL of purified PMNL membrane fragments; from tissue; host or cells: polymorphonuclear leukocyte (PMNL) membrane fragments", "T1 sequence (P21730 1-350)": "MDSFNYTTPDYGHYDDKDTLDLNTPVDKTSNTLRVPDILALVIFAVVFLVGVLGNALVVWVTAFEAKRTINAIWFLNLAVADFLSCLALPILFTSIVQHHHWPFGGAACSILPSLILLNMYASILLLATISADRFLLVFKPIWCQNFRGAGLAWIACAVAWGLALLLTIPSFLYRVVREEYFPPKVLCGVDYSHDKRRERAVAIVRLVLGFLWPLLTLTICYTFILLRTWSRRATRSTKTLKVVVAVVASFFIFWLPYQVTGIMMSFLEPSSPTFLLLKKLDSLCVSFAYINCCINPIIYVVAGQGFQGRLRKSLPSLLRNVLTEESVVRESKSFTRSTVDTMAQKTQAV", "test": "Anaphylatoxin receptor binding Ki determination (inhibition of 125I-C5a binding to PMNL membrane fragments)", "conditions": "not given", "procedure": "(§1) Specific inhibition of C5 a binding activity of representative compounds of the present invention was measured using 0.03-1 nM ^125 I-C5 a with 2.5-25 μg/mL of purified PMNL membrane fragments (Borregaard, N.; Heiple, J. M.; Simons, E. R.; and Clark, R. A. J. Cell. Biol. 1983, 97, 52-61.). Free and membrane-bound ligand were separated by filtration.", "units": {"Ki": "nM"}, "values": [
      {"smiles": "CN[C@@H](Cc1ccccc1)C(=O)N[C@@H](CCCCN)C(=O)N1CCC[C@H]1C(=O)N[C@H](CC1CCCCC1)C(=O)N[C@@H](CC1CCCCC1)CN(CCCCNC(=N)N)C(=O)Cc1ccccc1", "note": "[Example 78, N-(4-Guanidinobutyl)-N-[(N-Methyl)Phenylalanyl-Lysyl-Prolyl-{(2R)-2-Amino-3-cyclohexylpropanoyl}-{(2S)-2-Amino-3-cyclohexylpropyl}]-N-Phenylacetamide] (H-[NMeF]KP[dCha]-X10)", "Ki": 680},
      {"smiles": "N=C(N)NCCC[C@@H](NC(=O)[C@H](CC1CCCCC1)NC(=O)[C@@H](CC1CCCCC1)NC(=O)[C@@H]1CCCN1C(=O)[C@H](CCCCN)NC(=O)c1ccccc1)C(=O)O", "note": "[Example 82, N-Benzoyl-Lysyl-Prolyl-{(2R)-2-Amino-3-cyclohexylpropanoyl}-{(2S)-2-Amino-3-cyclohexylpropanoyl}-DArginyl-OH] (Bz-KP[dCha][Cha][dR]-OH)", "Ki": 24000},
      {"smiles": "N#CC(Cc1ccccc1)C(=O)N[C@@H](CCCCN)C(=O)N1CCC[C@H]1C(=O)N[C@H](CC1CCCCC1)C(=O)N[C@@H](Cc1ccccc1)C(=O)N[C@H](CCCNC(=N)N)C(=O)O", "note": "(stereo partly drawn) [Example 99, {(2RS)-2-Cyano-3-phenylpropionyl}-Lysyl-Prolyl-{(2R)-2-Amino-3-cyclohexylpropanoyl}-Phenylalanyl-DArginyl-OH] (X2-KP[dCha]F[dR]-OH)", "Ki": 120},
      {"smiles": "CN[C@@H](Cc1ccccc1)C(=O)N[C@@H](CCCCN)C(=O)N1CCC[C@H]1C(=O)N[C@H](CC1CCCCC1)C(=O)N[C@@H](Cc1ccccc1)C(=O)NCC1(c2ccccc2)CC1", "note": "[Example 100, (N-Methyl)Phenylalanyl-Lysyl-Prolyl-{(2R)-2-Amino-3-cyclohexylpropanoyl}-Phenylalanyl-N-{(1-Phenyl)cyclopropylmethyl}amide] (H-[NMeF]KP[dCha]F-X8)", "Ki": 91}
    ]},
    {"biological_target": "T1, C5a Receptor", "test": "Anaphylatoxin receptor binding Ki determination (inhibition of 125I-C5a binding to PMNL membrane fragments)", "conditions": "0.03-1 nM 125I-C5a, 2.5-25 μg/mL purified PMNL membrane fragments, filtration; read-out: Ki (In vitro C5a Receptor Binding Potency)", "procedure": "as §1", "units": {"Ki": "nM"}, "values": [
      {"smiles": "N=C(N)NCCC[C@@H](NC(=O)[C@H](CC1CCCCC1)NC(=O)[C@@H](CC1CCCCC1)NC(=O)[C@@H]1CCCN1C(=O)[C@H](CCCCN)NC(=O)C(Cc1ccccc1)C(=O)O)C(=O)O", "note": "(mixture of isomers) [Example 149, {(R/S)-(2-Carboxyl)-3-phenylpropionyl}-Lysyl-Prolyl-{(2R)-2-Amino-3-cyclohexylpropanoyl}-{(2S)-2-Amino-3-cyclohexylpropanoyl}-DArginyl-OH]", "Ki": 22},
      {"smiles": "CC[C@H](C(=O)N[C@@H](CCCCN)C(=O)N1CCC[C@H]1C(=O)N[C@H](CC1CCCCC1)C(=O)N[C@@H](CC1CCCCC1)C(=O)N[C@H](CCCNC(=N)N)C(=O)O)c1ccccc1", "note": "[Example 2, (S)-(+)-2-phenylbutyryl-Lysyl-Prolyl-{(2R)-2-Amino-3-cyclohexylpropanoyl}-{(2S)-2-Amino-3-cyclohexylpropanoyl}-DArginyl-OH] (X9-KP[dCha][Cha][dR]-OH)", "Ki": 14},
      {"smiles": "N=C(N)NCCC[C@@H](NC(=O)[C@H](Cc1ccccc1)NC(=O)[C@@H](CC1CCCCC1)NC(=O)[C@@H]1CCCN1C(=O)[C@H](CCCCN)NC(=O)C(CO)c1ccccc1)C(=O)O", "note": "(stereo partly drawn) [Example 8, {(2R/S)-2-Hydroxymethyl-2-phenylacetyl}-Lysyl-Prolyl-{(2R)-2-Amino-3-cyclohexylpropanoyl}-Phenylalanyl-DArginyl-OH] (X7-KP[dCha]F[dR]-OH)", "Ki": 6200},
      {"smiles": "CN[C@@H](Cc1ccccc1)C(=O)N[C@@H](CCCCN)C(=O)N1CCC[C@H]1C(=O)N[C@H](CC1CCCCC1)C(=O)N[C@@H](CC1CCCCC1)C(=O)NCCCCCN", "note": "[Example 30, (N-Methyl)Phenylalanyl-Lysyl-Prolyl-{(2R)-2-Amino-3-cyclohexylpropanoyl}-{(2S)-2-Amino-3-cyclohexylpropanoyl}-N-(5-Aminopentyl)amide] (H-[NMeF]KP[dCha][Cha]-{NH(CH2)5NH2})", "Ki": 2200},
      {"smiles": "CN[C@@H](Cc1ccccc1)C(=O)N[C@@H](CCCCN)C(=O)N1CCC[C@H]1C(=O)N[C@H](CC1CCCCC1)C(=O)N[C@@H](CC1CCCCC1)C(=O)NCCCNC(=N)N", "note": "[Example 55, (N-Methyl)Phenylalanyl-Lysyl-Prolyl-{(2R)-2-Amino-3-cyclohexylpropanoyl}-{(2S)-2-Amino-3-cyclohexylpropanoyl}-N-(3-Guanidinopropyl)amide] (H-[NMeF]KP[dCha][Cha]-X3)", "Ki": 7},
      {"smiles": "C[C@@H](CC(=O)N[C@@H](CCCCN)C(=O)N1CCC[C@H]1C(=O)N[C@H](CC1CCCCC1)C(=O)N[C@@H](CC1CCCCC1)C(=O)N[C@H](CCCNC(=N)N)C(=O)O)c1ccccc1", "note": "[Example 57, {S(+)-3-Phenylbutyryl}-Lysyl-Prolyl-{(2R)-2-Amino-3-cyclohexylpropanoyl}-{(2S)-2-Amino-3-cyclohexylpropanoyl}-DArginyl-OH] ({Butanoyl(3S-Ph)}-KP[dCha][Cha][dR]-OH)", "Ki": 27},
      {"smiles": "N=C(N)NCCC[C@@H](NC(=O)[C@H](Cc1ccccc1)NC(=O)[C@@H](CC1CCCCC1)NC(=O)[C@@H]1CCCN1C(=O)[C@H](CCCCN)NC(=O)[C@@H](O)Cc1ccccc1)C(=O)O", "note": "[Example 84, {(3S)-Phenyllactyl)-Lysyl-Prolyl-{(2R)-2-Amino-3-cyclohexylpropanoyl}-Phenylalanyl-DArginyl-OH] (H-[PhLac]KP[dCha]F[dR]-OH)", "Ki": 62},
      {"smiles": "N#CC(Cc1ccccc1)(Cc1ccccc1)C(=O)N[C@@H](CCCCN)C(=O)N1CCC[C@H]1C(=O)N[C@H](CC1CCCCC1)C(=O)N[C@@H](Cc1ccccc1)C(=O)N[C@H](CCCNC(=N)N)C(=O)O", "note": "[Example 88, {2-Benzyl-2-cyano-3-phenylpropionyl}-Lysyl-Prolyl-{(2R)-2-Amino-3-cyclohexylpropanoyl}-Phenylalanyl-DArginyl-OH] (X6-KP[dCha]F[dR]-OH)", "Ki": 670},
      {"smiles": "CN[C@@H](Cc1ccccc1)C(=O)N[C@@H](CCCCN)C(=O)N1CCC[C@H]1C(=O)N[C@H](CC1CCCCC1)C(=O)N[C@@H](CC1CCCCC1)C(=O)NCc1ccccc1", "note": "[Example 96, (N-Methyl)Phenylalanyl-Lysyl-Prolyl-{(2R)-2-Amino-3-cyclohexylpropanoyl}-{(2S)-2-Amino-3-cyclohexylpropanoyl}-N-Benzylamide] (H-[NMeF]KP[dCha][Cha]-NHBn)", "Ki": 90},
      {"smiles": "CN[C@@H](Cc1ccccc1)C(=O)N[C@@H](CCCCN)C(=O)N1CCC[C@H]1C(=O)N[C@H](CC1CCCCC1)C(=O)N[C@@H](CC1CCCCC1)C(=O)NCc1cccc([N+](=O)[O-])c1", "note": "[Example 114, (N-Methyl)Phenylalanyl-Lysyl-Prolyl-{(2R)-2-Amino-3-cyclohexylpropanoyl}-{(2S)-2-Amino-3-cyclohexylpropanoyl}-N-(3-Nitrobenzyl)amide] (H-[NMeF]KP[dCha][Cha]-X11)", "Ki": 130},
      {"smiles": "CN[C@@H](Cc1ccccc1)C(=O)N[C@@H](CCCCN)C(=O)N1CCC[C@H]1C(=O)N[C@H](CC1CCCCC1)C(=O)N1CCN(Cc2ccccc2)CC1", "note": "[Example 117]", "Ki": 110000},
      {"smiles": "CN[C@@H](Cc1ccccc1)C(=O)N[C@@H](CCCCN)C(=O)N1CCC[C@H]1C(=O)N[C@H](CC1CCCCC1)C(=O)N[C@H](CO)Cc1ccccc1", "note": "[Example 119, (N-Methyl)Phenylalanyl-Lysyl-Prolyl-{(2R)-2-Amino-3-cyclohexylpropanoyl}-{(S)-(-)-2-Amino-3-phenyl-1-propanol}] (H-[NMeF]KP[dCha][Phe(ol)])", "Ki": 780},
      {"smiles": "CN[C@@H](Cc1ccccc1)C(=O)N[C@@H](CCCCN)C(=O)N1CCC[C@H]1C(=O)N[C@H](CC1CCCCC1)C(=O)NC(CC1CCCCC1)C(=O)OCc1ccccc1", "note": "(stereo partly drawn) [Example 159, (N-Methyl)Phenylalanyl-Lysyl-Prolyl-{(2R)-2-Amino-3-cyclohexylpropanoyl}-{(2R/S)-2-Amino-3-cyclohexylpropanoyl}O-Benzyl] (H-[NMeF]KP[dCha][ξCha]-OBn)", "Ki": 980}
    ]}
  ]
}
